≈ marks a conversion by molar mass, not a printed value.
Experiments:
[1] = tested on: Staphylococcus pseudintermedius (JCM 17571); assay: Antimicrobial activity test, minimum bactericidal concentration (MBC100); format: cell-based; conditions: JCM17571, S. pseudintermedius, 1 minute contact, then culture at 30° C. for 72 hours
Procedure: Staphylococcus pseudintermedius that had been cultured on a Luria Broth (LB) agar medium plate (peptone, yeast extract, sodium chloride, agar, from Invitrogen) for 24 hours was suspended in physiological saline to prepare so as to have an absorbance of 0.025 at 600 nm. The compound under test dissolved in DMSO was added thereto so as to have final concentrations of 200, 100, 50, and 25 ppm, and 1 minute later, 10 μL of suspension and 10 mL of physiological saline were added to a syringe and stirred. After that, the mixture was filtered by connecting to a 37 mm quality monitor (manufactured by Pall Corporation) and washed twice with 10 ml of physiological saline. As such, membrane filters were permeated with an LB medium, culturing was performed at 30° C. for 72 hours, the presence or absence of the development of colonies was examined to determine a minimum bactericidal concentration (MBC100). A minimum bactericidal concentration (MBC100) for Staphylococcus pseudintermedius (JCM 17571) was determined in the same method as in Test Example 6 except that the hydrate crystal (Production Example 2) was used as the compound under test.

[2] = tested on: Malassezia pachydermatis (IFM56528); assay: Antifungal activity test, minimum fungicidal concentration (MFC100); format: cell-based; conditions: 1 minute contact, culture 32° C. for 72 hours, read-out: Minimal fungicidal concentration (MFC100)
Procedure: Malassezia pachydermatis that had been cultured on a Sabouraud medium (1% peptone, 4% […], 1.5% agar) for 5 to 7 days was suspended in physiological saline to prepare so as to have an absorbance of 0.025 at 600 nm. The compound under test dissolved in DMSO was added thereto so as to have final concentrations of 200, 100, 50, and 25 ppm. 1 minute later, 10 μL of suspension and 10 mL of physiological saline were added to a syringe and stirred, and then the mixture was filtered and washed by connecting to a 37 mm quality monitor (manufactured by Pall Corporation) and washed. As such, membrane filters were permeated with the Sabouraud medium, culturing was performed at 32° C. for 72 hours, the presence or absence of the development of colonies was examined to determine a minimum fungicidal concentration (MFC100). A minimum fungicidal concentration (MFC100) for Malassezia pachydermatis (IFM56528) was determined in the same method as in Test Example 9 except that the hydrate crystal (Production Example 2) was used as the compound under test.

[3] = tested on: Malassezia furfur (IFM 55951); assay: as above; format: cell-based; conditions: 1 minute contact, culture 32° C. for 72 hours, read-out: Minimal fungicidal concentration (MFC100)
Procedure: (§1) Fungi of Malassezia (Malassezia furfur, Malassezia sympodialis, and Malassezia globosa) that had been cultured on a CHROMagar (trademark) Malassezia/Candida raw medium (peptone, specialized enzyme-substrate mixture, chloramphenicol, olive oil, agar, manufactured by KANTO CHEMICAL CO., INC.) for 5 to 7 days was suspended in physiological saline to prepare so as to have an absorbance of 0.025 at 600 nm. The compound under test dissolved in DMSO was added thereto so as to have final concentrations of 200, 100, 50, and 25 ppm. 1 minute later, 10 μL of suspension and 10 mL of physiological saline were added to a syringe and stirred, and then the mixture was filtered by connecting to a 37 mm quality monitor (manufactured by Pall Corporation) and washed twice with 10 ml of physiological saline. The membrane filters were removed from the quality monitor, and placed and cultured on the CHROMagar (trademark) Malassezia/Candida raw medium at 32° C. for 72 hours, and the presence or absence of the development of colonies was examined to determine a minimum fungicidal concentration (MFC100). Minimum fungicidal concentrations (MFC100) for Malassezia furfur (IFM 55951), Malassezia sympodialis (IFM 48588), and Malassezia globosa (IFM 51946) were determined in the same method as in Test Example 10 except that the hydrate crystal (Production Example 2) was used as the compound under test.

[4] = tested on: Malassezia globosa (IFM 51946); assay: as above; format: cell-based; conditions: 1 minute contact, culture 32° C. for 72 hours, read-out: Minimal fungicidal concentration (MFC100)
Procedure: as §1

[5] = tested on: Malassezia sympodialis (IFM 48588); assay: as above; format: cell-based; conditions: 1 minute contact, culture 32° C. for 72 hours, read-out: Minimal fungicidal concentration (MFC100)
Procedure: as §1

Moisture absorption test = format: physicochemical
Procedure: An anhydrous crystal sample was placed in a container (glass weighing bottle or paper bag) in such a manner that it was in direct contact with the damp. […] In addition, a sample for the hydrate crystal (Production Example 1) was also preserved at 60° C./80% RH, and the change in moisture content was observed through the change in weight or Karl Fischer moisture measurement.

[6] = Test of triboelectrification properties; format: physicochemical; conditions: 25° C. and 50% RH
Procedure: First, the sample was loaded into a levelled stainless steel petri dish having φ50 mm×a height of 15 mm, and then it was statically eliminated with a static eliminator (STABLO AP, manufactured by SHIMADZU CORPORATION). The surface potential of the sample was measured with a surface electrometer (SV-77A, manufactured by NIPPON STATIC CO., LTD.) that had previously been zero-point adjusted, to confirm that it was statically eliminated (within −1 to +1 kV). Next, the sample surface of the petri dish loaded with the sample was scraped back and forth 20 times with a stainless steel metal plate for 10 seconds to charge the sample surface. After that, the petri dish loaded with the charged sample was placed on a metal plate (30 cm×30 cm) connected with a ground wire. The surface potential of the sample was measured over time for 20 minutes with the above surface electrometer. The triboelectrification properties were evaluated from the initial surface potential. In addition, the retention rate was calculated from the surface potential after 20 minutes and the initial surface potential to evaluate charge attenuation properties. Note that the test was conducted in an electrostatic measurement chamber (Tabai ESPEC CORP.) set to 25° C. and 50% RH, and the surface potential measurement was conducted at a distance of 1 cm from the sample surface.

[7] = 40° C./75% RH, weighing bottle, 14 days
[8] = 40° C./75% RH, weighing bottle, 28 days
[9] = 40° C./75% RH, weighing bottle, 28 days, listed as Anhydrate crystal

Question: For `Cc1ccc(-c2nc(C#N)[nH]c2Cl)cc1Cl` [Anhydrous crystal, 5-chloro-4-(3-chloro-4-methylphenyl)-1H-imidazole-2-carbonitrile], which MBC [1] is on record?
Answer: 50 µg/mL (≈ 198 µM)

Question: What about the MFC [2] of the same compound?
Answer: 50 µg/mL (≈ 198 µM)

Question: What about the MFC [3] of the same compound?
Answer: 50 µg/mL (≈ 198 µM)

Question: And the MFC [4]?
Answer: 50 µg/mL (≈ 198 µM)

Question: What about the MFC [5] of the same compound?
Answer: 50 µg/mL (≈ 198 µM)

Question: What about the Moisture content (Moisture absorption test; 25° C./80% RH, paper bag, 0 days) of the same compound?
Answer: 0.1%

Question: And the Weight change (Moisture absorption test; 25° C./80% RH, paper bag, 14 days)?
Answer: 0.6%

Question: And the Weight change (Moisture absorption test; 25° C./80% RH, paper bag, 28 days)?
Answer: 2.2%

Question: And the Weight change (Moisture absorption test; 25° C./80% RH, paper bag, 35 days)?
Answer: 3.3%

Question: And the Weight change (Moisture absorption test; 25° C./80% RH, paper bag, 43 days)?
Answer: 4.2%

Question: What about the Weight change (Moisture absorption test; 25° C./80% RH, paper bag, 49 days) of the same compound?
Answer: 4.7%

Question: What about the Weight change (Moisture absorption test; 25° C./80% RH, paper bag, 49 days, listed as Anhydrate crystal) of the same compound?
Answer: 4.7%

Question: What about the Moisture content (Moisture absorption test; 40° C./75% RH, weighing bottle, 0 days) of the same compound?
Answer: 0.1%

Question: What about the Weight change (Moisture absorption test; 40° C./75% RH, weighing bottle, 7 days) of the same compound?
Answer: 3.5%

Question: And the Moisture content (Moisture absorption test; [7])?
Answer: 5.7%

Question: And the Weight change (Moisture absorption test; [7])?
Answer: 5.0%

Question: What about the Weight change (Moisture absorption test; 40° C./75% RH, weighing bottle, 21 days) of the same compound?
Answer: 6.4%

Question: What about the Moisture content (Moisture absorption test; [8]) of the same compound?
Answer: 6.1%

Question: What about the Weight change (Moisture absorption test; [8]) of the same compound?
Answer: 6.7%

Question: What about the Moisture content (Moisture absorption test; [9]) of the same compound?
Answer: 6.1%

Question: And the Weight change (Moisture absorption test; [9])?
Answer: 6.7%

Question: What about the Electrification voltage ([6]; 0 minutes after charging, listed as Anhydrate crystal) of the same compound?
Answer: −5.42 kv

Question: And the Electrification voltage ([6]; 20 minutes after charging, listed as Anhydrate crystal)?
Answer: −5.39 kv

Question: What about the “Decrease of potential retention rate” value ([6]; at 20 minutes later) of the same compound?
Answer: almost no change

Question: What about the Retention rate ([6]; surface potential after 20 minutes vs initial, listed as Anhydrate crystal) of the same compound?
Answer: 99.4%

Reference: US20250026725A1, “HYDRATE CRYSTAL OF 5-CHLORO-4-(3-CHLORO-4- METHYLPHENYL)-1H-IMIDAZOLE-2-CARBONITRILE” (ISHIHARA SANGYO KAISHA, LTD., priority 2021, published 2025)
